Source: US20260250318A1, “COMPOSITIONS AND METHODS FOR CROSSING THE BLOOD BRAIN BARRIER” (VOYAGER THERAPEUTICS, INC., priority 2022, published 2026)

Assays:
Conditions in all cases: synthetic library passage 3, intravenous, relative to wild-type AAV9
brain [1] = assay: NGS fold enrichment of synthetic library (passage 3) in C57Bl/6 mice, first cross-species screen; assay type: in vivo
In short: (§1)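 Passage-3 synthetic capsid library given intravenously […] to NHPs (2-4 years) and BALB/c or C57Bl/6 mice (n=3, 6-8 weeks). After e.g. 28 days, tissue RNA was RT-PCR amplified and NGS-sequenced; values are fold enrichment of each variant relative to wild-type AAV9.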

[2] = test system: brain, spinal cord, and DRG of the NHPs; assay: NGS fold enrichment of synthetic library (passage 3) in NHPs, first cross-species screen; assay type: in vivo, cynomolgus macaques (Macaca fascicularis)
In short: as §1

brain [3] = assay: NGS fold enrichment of synthetic library (passage 3) in BALB/c mice, first cross-species screen; assay type: in vivo
In short: as §1

[4] = RNA from brain of C57Bl/6 mice, NGS
[5] = RNA from spinal cord of NHPs, NGS
[6] = RNA from brain of BALB/c mice, NGS

Row | Sequence | Fold enrichment over AAV9 in the brain of Mice (C57Bl/6) (brain [1]; RNA NGS, brain of C57Bl/6 mice) | Fold enrichment over AAV9 in the brain of NHPs ([2]; RNA NGS, brain of NHPs) | Fold enrichment over AAV9 in the spinal cord of NHPs ([2]; RNA NGS, spinal cord of NHPs) | Fold enrichment over AAV9 in the brain of Mice (BALB/c) (brain [3]; RNA NGS, brain of BALB/c mice) | Fold enrichment over AAV9 in the brain of Mice (C57Bl/6) (brain [1]; [4]) | Fold enrichment over AAV9 in the brain of NHPs ([2]; RNA from brain of NHPs, NGS) | Fold enrichment over AAV9 in the spinal cord of NHPs [2, 5] | Fold enrichment over AAV9 in the brain of Mice (BALB/c) (brain [3]; [6])
1 | GSGIIPVSSQNQQT | 0.642 fold | 6.352 fold | 0.000 fold | 0.253 fold | – | – | – | –
2 | GSGIPAPRLQNQQT | – | – | – | – | 0.583 fold | 1.273 fold | 4.162 fold | 0.396 fold
3 | GSGIPQRSGKNQQT | 1.418 fold | 3.331 fold | 0.000 fold | 1.685 fold | – | – | – | –
4 | GSGIPSVKFQNQQT | – | – | – | – | 0.364 fold | 1.281 fold | 0.061 fold | 0.561 fold
5 | GSGIQSSYSQNQQT | 1.032 fold | 1.517 fold | 15.978 fold | 0.684 fold | – | – | – | –
6 | GSGISSRNMQNQQT | – | – | – | – | 1.671 fold | 1.291 fold | 6.328 fold | 0.560 fold
7 | GSGIVTKLGQNQQT | – | – | – | – | 0.599 fold | 1.174 fold | 10.571 fold | 0.242 fold
8 | GSGKGHSAGQNQQT | 1.035 fold | 1.453 fold | 0.936 fold | 1.173 fold | – | – | – | –
9 | GSGKNQQRPGLDQT | 0.583 fold | 1.089 fold | 1.557 fold | 0.385 fold | – | – | – | –
10 | GSGKNQTPIPKGQT | – | – | – | – | 1.306 fold | 1.339 fold | 5.077 fold | 1.154 fold
11 | GSGKVTKQSQNQQT | 0.928 fold | 1.095 fold | 0.000 fold | 1.035 fold | – | – | – | –
12 | GSGLAHLGGQNQQT | 0.749 fold | 1.064 fold | 2.191 fold | 0.794 fold | – | – | – | –
13 | GSGLALERSQNQQT | – | – | – | – | 0.618 fold | 1.311 fold | 0.486 fold | 0.096 fold
14 | GSGLDYSQRQNQQT | 0.484 fold | 2.056 fold | 0.837 fold | 0.217 fold | – | – | – | –
15 | GSGLGMSTGQNQQT | 0.458 fold | 3.110 fold | 5.499 fold | 0.660 fold | – | – | – | –
16 | GSGLGRAPVQNQQT | 0.841 fold | 2.503 fold | 2.214 fold | 0.383 fold | – | – | – | –
17 | GSGLIRTAAQNQQT | 0.808 fold | 1.822 fold | 8.339 fold | 0.998 fold | – | – | – | –
18 | GSGLKPNVLQNQQT | – | – | – | – | 0.701 fold | 1.263 fold | 0.975 fold | 0.268 fold
19 | GSGLKWSTLQNQQT | 1.134 fold | 1.556 fold | 0.000 fold | 2.442 fold | – | – | – | –
20 | GSGLLHGKLQNQQT | 1.068 fold | 2.032 fold | 2.521 fold | 0.917 fold | – | – | – | –

Row | Sequence | Fold enrichment over AAV9 in the brain of Mice (C57Bl/6) (brain [1]; RNA NGS, brain of C57Bl/6 mice) | Fold enrichment over AAV9 in the brain of NHPs ([2]; RNA NGS, brain of NHPs) | Fold enrichment over AAV9 in the spinal cord of NHPs ([2]; RNA NGS, spinal cord of NHPs) | Fold enrichment over AAV9 in the brain of Mice (BALB/c) (brain [3]; RNA NGS, brain of BALB/c mice) | Fold enrichment over AAV9 in the brain of Mice (C57Bl/6) (brain [1]; [4]) | Fold enrichment over AAV9 in the brain of NHPs ([2]; RNA from brain of NHPs, NGS) | Fold enrichment over AAV9 in the spinal cord of NHPs [2, 5] | Fold enrichment over AAV9 in the brain of Mice (BALB/c) (brain [3]; [6])
21 | GSGLLHRAQQNQQT | 1.583 fold | 1.569 fold | 0.724 fold | 0.646 fold | – | – | – | –
22 | GSGLLPLSSQNQQT | 0.501 fold | 2.612 fold | 1.130 fold | 0.293 fold | – | – | – | –
23 | GSGLLYHDQQNQQT | 0.405 fold | 1.565 fold | 2.760 fold | 0.107 fold | – | – | – | –
24 | GSGLPDRNLQNQQT | 1.136 fold | 1.471 fold | 7.306 fold | 0.611 fold | – | – | – | –
25 | GSGLPVLSGQNQQT | 0.631 fold | 3.100 fold | 4.149 fold | 0.210 fold | – | – | – | –
26 | GSGLRQTSQQNQQT | 0.978 fold | 1.537 fold | 2.067 fold | 0.705 fold | – | – | – | –
27 | GSGLRTMTTQNQQT | 0.838 fold | 1.900 fold | 8.939 fold | 0.594 fold | – | – | – | –
28 | GSGLSGITMQNQQT | 0.862 fold | 1.792 fold | 14.796 fold | 0.496 fold | – | – | – | –
29 | GSGLSHATQQNQQT | 1.111 fold | 2.640 fold | 7.819 fold | 0.638 fold | – | – | – | –
30 | GSGLSHSHQQNQQT | 1.256 fold | 2.109 fold | 5.852 fold | 0.592 fold | – | – | – | –
31 | GSGLSVHLAQNQQT | 0.806 fold | 2.657 fold | 1.234 fold | 0.508 fold | – | – | – | –
32 | GSGLSVQSGQNQQT | 1.695 fold | 2.637 fold | 2.929 fold | 1.005 fold | – | – | – | –
33 | GSGLTLSATQNQQT | 0.708 fold | 1.901 fold | 0.193 fold | 0.340 fold | – | – | – | –
34 | GSGMIHTTAQNQQT | – | – | – | – | 0.678 fold | 1.285 fold | 0.105 fold | 0.276 fold
35 | GSGMIIASMQNQQT | 1.135 fold | 1.469 fold | 6.722 fold | 0.415 fold | – | – | – | –
36 | GSGMLTHTLQNQQT | 0.496 fold | 2.246 fold | 2.272 fold | 0.199 fold | – | – | – | –
37 | GSGMPASRLQNQQT | 0.790 fold | 1.117 fold | 1.689 fold | 0.372 fold | – | – | – | –
38 | GSGMPIRNVQNQQT | 0.684 fold | 1.584 fold | 0.138 fold | 0.631 fold | – | – | – | –
39 | GSGMPQSHIQNQQT | 0.514 fold | 3.289 fold | 11.609 fold | 0.334 fold | – | – | – | –
40 | GSGMPVILGQNQQT | 0.840 fold | 2.005 fold | 0.150 fold | 0.287 fold | – | – | – | –
